Columns and labels:
bna7Δ (YKB4649) [1] = assay: serial dilution spot assay on YPD agar plates; type: cell-based, S. cerevisiae; details: 10 mM FA, 35 mM 4-HBA or 1 mM CA, 48 hr at 30° C.
Description: (§1) In addition, deletion mutants were generated for genes involved in the tryptophan catabolic pathway and their growth was assayed on solid media containing 10 mM ferulic acid. In particular, wild type yeast (BY4741) along with deletion mutants aro8Δ (YKB4799), bna7Δ (YKB4649), bna2Δ (YKB4798), bna6Δ (YKB4844), bna5Δ (YKB4845), bna4Δ (YKB4846) and bna1Δ (YKB4729) were grown to mid log phase ([…] 0.5-0.6) in YPD medium prior to being diluted to an OD600 of 0.1. Four 10-fold serial dilutions were spotted onto YPD agar plates either containing 10 mM ferulic acid or no ferulic acid. Plates were incubated for 48 hr at 30° C. Images of the plates were taken with the ChemiDoc XRS Molecular Imaging system (Biorad) and images are representative of three biological replicates.
Experiments were also conducted to determine if deletion of BNA7 could provide protection to 4-hydroxybenzoic acid or coniferyl aldehyde (CA). Wild type (BY4741) and bna7A (YKB4649) strains were grown to mid log phase in YPD medium prior to being diluted into fresh medium to an OD600 of 0.1. Four 10-fold serial dilutions were spotted onto YPD agar plates containing either no compound (Untreated), 10 mM ferulic acid (FA), 35 mM 4-hydroxybenzoic acid (4-HBA) or 1 mM coniferyl aldehyde (CA). Plates were incubated for 48 hr at 30° C. and images are representative of three biological replicates.

wild-type yeast (BY4741) = assay: ROS measurement by H2DCFDA fluorescence microscopy; type: cell-based, S. cerevisiae; details: 2 mM CA, 1 hour at 30° C.; for subcellular distribution of induced ROS: 10 mM FA or 50 mM 4-HBA
Description: Measurement of ROS was performed as previously described (Kennedy et al., 2016, Sci Rep. 6, 19332). Briefly cells were incubated with 10 μM 2′,7′-dichlorodihydrofluorescein diacetate (H2DCFDA; Invitrogen cat. #D399) for 15 min in the dark. […] An aliquot of 5 μL was spotted onto glass slides and covered with a cover slip prior to imaging. All images were acquired using a Leica DMI 6000 florescent microscope (Leica Microsystems GmbH, Wetzler Germany), equipped with a Sutter DG4 light source (Sutter Instruments, California, USA), Ludl emission filter wheel with Chroma band pass emission filters (Ludl Electronic Products Ltd., NY, USA) and Hamamatsu Orca AG camera (Hamamatsu Photonics, Herrsching am Ammersee, Germany). Images were acquired at 0.2 μm steps across 6 μm using a 63× oil-immersion objective with a 1.4 numerical aperture. Analysis of H2DCFDA fluorescence was performed using Velocity Software V4 (Perkin Elmer). Image J software was used to quantify the H2DCFDA fluorescence signal in cells as described by Schneider et al (Schneider et al., 2012, Nature Methods, 9, 671-675) with a slight modification. Briefly, background fluorescence was subtracted from the images and the total fluorescence of all the cells in the image was measured and divided by the number of cells in the image. The images contained a minimum of 100 cells. The ratio of fluorescence per cell of treated cultures was divided by that of untreated cultures to eliminate background endogenous ROS production.

Zwf1-GFP = Zwf1-GFP fluorescence microscopy; type: cell-based, S. cerevisiae; details: 2 mM CA for 120 min at 30° C. (ρ=9.69E-5); ferulic acid 10 mM
Description: For the microscopy studies, wild type cells expressing endogenously tagged Zwf1-GFP (YKB4825) were grown to mid log in YPD, prior to being washed and resuspended in YPD medium (Untreated) or YPD medium containing 2 mM coniferyl aldehyde (CA) for 120 min at 30° C. Images (FIG. 8A) are representative of three independent experiments where a minimum of 100 cells each were imaged. Scale bar represents 10 μm.

[2] = tested on: Saccharomyces cerevisiae ethanol red; details: commercial Saccharomyces cerevisiae ethanol red; Adeboye et al., 2014; cited from earlier work
bna7Δ (YKB4649) [3] = assay: automated growth curve analysis in YPD liquid medium; type: cell-based, S. cerevisiae; details: 10 mM ferulic acid, 30° C., 72 hr
Description: The agar-based chemogenomic screen was confirmed by measuring the growth rate of the identified mutants in liquid YPD medium supplemented with the phenolic compounds. Briefly, overnight cultures of the mutant strains were inoculated into fresh YPD medium and strains were incubated at 30° C. until they reached the mid log phase ([…] 0.5-0.6), prior to being diluted to a final OD600 of 0.1 in a BioScreen CTM Honeycomb microplate. The growth assays were performed for each mutant in triplicate in YPD alone (control) or YPD medium supplemented with ferulic acid, 4-hydroxybenzoic acid or coniferyl aldehyde. Using a BioScreen CTM plate reader, the cultures were incubated at 30° C. for 72 hours and OD600 readings were taken every 15 min to plot growth curves. Data from the BioScreen CTM were analyzed with the PRECOG software (Fernandez-Ricaud et al., […], Nucleic acids research. 41, W591-6) to obtain the doubling time of all the strains. A PRECOG score for each of the strains tested was calculated as the ratio of the doubling time in the presence of the phenolic to the doubling time in the absence of these phenolic compounds. Using a cut-off PRECOG score of >2 and <0.4 strains were identified that were sensitive or tolerant, respectively, to the phenolic compounds. […]

[4] = tested on: mutants aro8Δ, bna2Δ, bna6Δ, bna5Δ, bna4Δ and bna1Δ; assay: serial dilution spot assay on YPD agar plates; type: cell-based, S. cerevisiae; details: 10 mM ferulic acid, 48 hr at 30° C.
Description: as §1

bna7Δ cells = assay: ROS measurement by H2DCFDA fluorescence microscopy; type: cell-based, S. cerevisiae; details: 10 mM ferulic acid for 2 hr; not statistically significant (ρ=0.756)
Description: For all microscopy experiments overnight cultures of wild-type yeast grown at 30° C. were re-suspended at an OD600 of 0.1 in YPD medium and allowed to reach mid-log phase prior to imaging. Measurement of ROS was performed as previously described (Kennedy et al., 2016, Sci Rep. 6, 19332). Briefly cells were incubated with 10 μM 2′,7′-dichlorodihydrofluorescein diacetate (H2DCFDA; Invitrogen cat. #D399) for 15 min in the dark. Cells were washed in sterile PBS to remove traces of the dye after which they were re-suspended in YPD medium alone, or YPD supplemented with either 2 mM coniferyl aldehyde, […]
Analysis of H2DCFDA fluorescence was performed using Velocity Software V4 (Perkin Elmer). Image J software was used to quantify the H2DCFDA fluorescence signal in cells as described by Schneider et al (Schneider et al., 2012, Nature Methods, 9, 671-675) with a slight modification. Briefly, background fluorescence was subtracted from the images and the total fluorescence of all the cells in the image was measured and divided by the number of cells in the image. […] The ratio of fluorescence per cell of treated cultures was divided by that of untreated cultures to eliminate background endogenous ROS production. […]

SMILES	resistance of bna7Δ / protection by deletion of BNA7 (bna7Δ (YKB4649) [1])	subcellular distribution of induced ROS (wild-type yeast (BY4741))	Zwf1-GFP fluorescence signal/cell (Zwf1-GFP)	concentration at which the compound kills the yeast [2]	growth (OD600) of bna7Δ relative to wild-type (bna7Δ (YKB4649) [3])	effect of gene deletion on ferulic acid tolerance [4]	ROS signal in bna7Δ compared to wild-type (bna7Δ cells)	ROS formation (H2DCFDA fluorescence) (wild-type yeast (BY4741); 10 mM FA, 50 mM 4-HBA or hydrogen peroxide)
O=C(O)c1ccc(O)cc1 [4-hydroxybenzoic acid]	does not provide protection	distributed throughout the cell	no increase	11 mM	–	–	–	–
COc1cc(C=CC(=O)O)ccc1O [ferulic acid, 4-hydroxy-3-methoxycinnamic acid]	resistant	distributed throughout the cell	no increase	5 mM	increased growth relative to the wild-type strain	no effect	slight reduction of ROS	–
OO [hydrogen peroxide]	–	–	–	–	–	–	–	induced the formation of green fluorescence signal throughout the cell
